# Test results from US20190185479A1, “BICYCLIC NITROGENATED HETEROCYCLIC COMPOUND” (MITSUBISHI TANABE PHARMA CORPORATION, priority 2016, published 2019).
# Molecular target: T1, Human PDE7B (hPDE7B) (Homo sapiens, UniProt Q9NP56)
# T1 construct: made in house; host or cells: COS-7 cells
# Test: Measurement of PDE7 inhibitory activity (Experimental Example 1; residual cAMP, LANCE Ultra cAMP TR-FRET)
# Format: biochemical
# Settings: cAMP 3 nmol/L, room temperature 60 minutes
# Experimental: Human PDE7B (hPDE7B) was isolated from COS-7 cells transfected with plasmids encoding hPDE7B according to the method described in a reference, Biochemical and Biophysical Research Communication, 271, p. 575-583 (2000). The resulting enzyme solution was used in the PDE assay.
# PDE7 inhibitory assay was carried out by reacting the mixture of a compound, hPDE7B, and cAMP, and measuring the residual cAMP by a detection method using LANCE (registered trademark) Ultra cAMP Detection Kit (ParkinElmer). The compound was dissolved in DMSO, and diluted so that the concentration would become 50 times of the final concentration. The hPDE7B and cAMP were diluted with an assay buffer (50 mmol/L Tris-HCl, 1 mmol/L MgCl2, 0.1% BSA, 0.5 mmol/L DTT, pH7.5) so that the hPDE7B would have an appropriate enzyme activity and the concentration of cAMP would become 6 nmol/L. To a 96 well plate were added the compound (2 μL) (DMSO final concentration: 2%), hPDE7B (48 μL), and cAMP (50 μL) (concentration at the reaction: 3 nmol/L), and the resulting mixture was reacted at room temperature for 60 minutes. The reaction solution (20 μL) was subjected to a TR-FRET method according to the protocol specified by the kit to measure the concentration of the residual cAMP. In the assay, to a tracer solution specified by the kit was added 0.5 mmol/L of 3-isobutyl-1-methylxanthine (IBMX, nonselective PDE inhibitor) in order to stop the PDE enzyme reaction after the completion of reaction until the measurement.
# The reaction without a compound was defined as “0% inhibition”, the reaction without hPDE7B was defined as “100% inhibition”, and the inhibition rate of the compound was calculated by the following equation.
# Inhibition rate of compound (%)={(Residual cAMP concentration at the addition of compound−Residual cAMP concentration in 0% inhibition)/(Residual cAMP concentration in 100% inhibition−Residual cAMP concentration in 0% inhibition)}×100
# T1 sequence (Q9NP56 whole entry): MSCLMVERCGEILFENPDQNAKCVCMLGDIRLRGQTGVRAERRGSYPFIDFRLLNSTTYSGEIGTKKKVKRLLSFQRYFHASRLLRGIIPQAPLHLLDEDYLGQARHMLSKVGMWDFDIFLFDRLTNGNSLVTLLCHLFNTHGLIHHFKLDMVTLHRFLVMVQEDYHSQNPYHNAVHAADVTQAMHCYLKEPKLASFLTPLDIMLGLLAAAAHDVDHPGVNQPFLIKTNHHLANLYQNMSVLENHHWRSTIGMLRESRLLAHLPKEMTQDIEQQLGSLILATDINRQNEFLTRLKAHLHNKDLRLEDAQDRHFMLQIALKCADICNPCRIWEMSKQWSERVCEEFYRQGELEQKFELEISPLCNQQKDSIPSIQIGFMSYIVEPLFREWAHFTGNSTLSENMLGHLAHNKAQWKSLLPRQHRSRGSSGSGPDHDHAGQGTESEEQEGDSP
row,Compound,IC50
1,"Nc1ncnc2c1nnn2C1CCCC(C(F)F)C1 (single isomer, unassigned) [Example 201]",> 1000 nM
2,"CC1CCCC(c2nnc3c(N)ncnn23)C1 (single isomer, unassigned) [Example 71, 3-(cis-3-methylcyclohexyl) [1,2,4]triazolo[3,4-f][1,2,4]triazin-8-amine]",4 nM
3,CC1CC(n2nnc3c(N)ncnc32)CC(C)(C)C1 (stereo not shown) [Example 108],230 nM
4,Nc1ncnc2c1nnn2C1CCCC(CC(F)(F)F)C1 (stereo not shown) [Example 120],380 nM
5,Cc1ccc(F)c(-n2nnc3c(N)ncnc32)c1 [Example 129],750 nM
6,"CC1CCC(F)(F)CC1c1nnc2c(N)ncnn12 (racemic) [Example 76, 3-(cis-5,5-difluoro-2-methylcyclohexyl) [1,2,4]triazolo[3,4-f][1,2,4]triazin-8-amine]",< 10 nM
7,Nc1nccn2c(-c3ccccc3)nnc12 [Example 170],270 nM
8,"Nc1ncnc2c1nnn2C1CCCCC1(F)F (single isomer, unassigned) [Example 114, 3-(2,2-difluorocyclohexyl)-3H-[1,2,3]triazolo[4,5-d]pyrimidin-7-amine]",190 nM
9,Nc1ncnc2c1nnn2C12CC3CC(CC(C3)C1)C2 [Example 10],100 nM
10,"Nc1ncnc2c1nnn2[C@H]1CCC[C@@H](C(F)(F)F)C1 (racemic) [Example 87, 3-[cis-3-(trifluoromethyl)cyclohexyl]-3H-[1,2,3]triazolo[4,5-d]pyrimidin-7-amine]",30 nM
11,"CC1CCC(C)N(c2nnc3c(N)ncc(C#N)n23)C1 (single isomer, unassigned) [Example 235, 8-amino-3-(2,5-dimethylpiperidin-1-yl) [1,2,4]triazolo[4,3-a]pyrazine-5-carbonitrile]",16 nM
12,Nc1ncnc2c1nnn2-c1cccc(C(=O)NCc2ccccc2)c1 [Example 131],250 nM
13,Nc1ncnc2c1nnn2[C@H]1CC[C@@H](C(F)(F)F)CC1 [Example 102],250 nM
14,"CC1CCC(C)N(c2nnc3c(N)nccn23)C1 (single isomer, unassigned) [Example 233, 3-(2,5-dimethylpiperidin-1-yl) [1,2,4]triazolo[4,3-a]pyrazin-8-amine]",100 nM

# Further lines, results first:
row,IC50,Compound
1,2.8 nM,"CC1CCC(C)(C)CN1c1nnc2c(N)nccn12 (single isomer, unassigned) [Example 237, 3-(2,5,5-trimethylpiperidin-1-yl) [1,2,4]triazolo[4,3-a]pyrazin-8-amine]"
2,170 nM,Nc1nccn2c([C@@H]3C[C@@H]4CC[C@H]3C4)nnc12 [Example 162]
3,190 nM,"CCC1CCCCN1c1nnc2c(N)nccn12 (single isomer, unassigned) [Example 223, 3-(2-ethylpiperidin-1-yl) [1,2,4]triazolo[4,3-a]pyrazin-8-amine]"
4,360 nM,Nc1ncnc2c1nnn2[C@H]1CCCOC1 [Example 91]
5,190 nM,CCC1CCCN(c2nnc3c(N)nccn23)C1 (stereo not shown) [Example 25]
6,< 10 nM,"Nc1ncnn2c(C3CCCC(C(F)(F)F)C3)nnc12 (single isomer, unassigned) [Example 74, 3-[cis-3-(trifluoromethyl)cyclohexyl][1,2,4]triazolo[3,4-f][1,2,4]triazin-8-amine]"
7,340 nM,Nc1nc(C(F)(F)F)nc2c1nnn2C1CCCCC1 [Example 6]
8,300 nM,Nc1nccn2c(N3CCCC(F)(F)C3)nnc12 [Example 47]
9,20 nM,"CCOc1nc(N)c2nnn(C3CCCCC3)c2n1 [Example 93, 3-cyclohexyl-5-ethoxy-3H-[1,2,3]triazolo[4,5-d]pyrimidin-7-amine]"
10,80 nM,CCC1CCCC(n2nnc3c(N)ncnc32)C1 (stereo not shown) [Example 117]
11,380 nM,COC1CCCCC1n1nnc2c(N)ncnc21 (stereo not shown) [Example 116]
12,570 nM,CC(c1ccccc1)n1nnc2c(N)ncnc21 (stereo not shown) [Example 15]
13,730 nM,"Nc1nccn2c(C3CC(F)(F)C3)nnc12 [Example 84, 3-(3,3-difluorocyclobutyl)-[1,2,4]triazolo[4,3-a]pyrazin-8-amine]"

# Same assay, conditions: compound at 1 μmol/L
row,inhibition at 1 µM,Compound
1,20%,"Nc1ncnc2c1nnn2C1CCCC(C(F)F)C1 (single isomer, unassigned) [Example 201]"
